ChEMBL document CHEMBL1926647, “Discovery of 4-aminomethylphenylacetic acids as γ-secretase modulators via a scaffold design approach” (Bioorg Med Chem Lett, 2011)
One block for each compound: values may come before it. Activity calls are given as the source filed them. The calls are words filed in the database; no cut-off is given here.

What was measured:
[1] = Modulation of gamma-secretase expressed in CHO cells co-expressing APP V717F mutant assessed as reduction in amyloid beta42 production after 17 hrs by ELISA; type: cell-based
[2] = Modulation of gamma-secretase-mediated cleavage of APP assessed as reduction in amyloid beta42 production
Mus musculus [3] = experiment: Inhibition of gamma-secretase-mediated cleavage of APP in wild type CF1 mouse brain assessed as inhibition of amyloid beta42 production at 30 mg/kg, po after 4 hrs by ELISA; type: functional
Mus musculus [4] = experiment: Inhibition of gamma-secretase-mediated cleavage of APP in wild type CF1 mouse brain assessed as inhibition of amyloid beta42 production at 50 mg/kg, po after 4 hrs by ELISA; type: functional
[5] = Drug uptake in wild type CF1 mouse brain at 50 mg/kg, po after 4 hrs; type: ADME, organism-based; design: dose 50 mg/kg, route oral; settings: read-out: Drug uptake
Nucleic Acid = experiment: Ratio of drug level in brain in wild type CF1 mouse to EC50 for gamma-secretase expressed in CHO cells; type: cell-based
CHO [6] = experiment: Modulation of gamma-secretase expressed in CHO cells co-expressing APP V717F mutant assessed as effect on amyloid beta40 production after 17 hrs by ELISA; type: cell-based
[7] = Drug uptake in wild type CF1 mouse plasma at 50 mg/kg, po after 4 hrs; type: ADME, organism-based; design: dose 50 mg/kg, route oral
CHO [8] = experiment: Modulation of gamma-secretase expressed in CHO cells co-expressing APP V717F mutant assessed as increase in amyloid beta38 secretion after 17 hrs by ELISA; type: cell-based
[9] = Drug uptake in wild type CF1 mouse plasma at 30 mg/kg, po after 4 hrs; type: ADME, organism-based; design: dose 30 mg/kg, route oral
[10] = Drug uptake in wild type CF1 mouse brain at 30 mg/kg, po after 4 hrs; type: ADME, organism-based; design: dose 30 mg/kg, route oral; settings: read-out: Drug uptake
Mus musculus [11] = experiment: Inhibition of gamma-secretase-mediated cleavage of APP in orally dosed wild type CF1 mouse brain assessed as inhibition of amyloid beta42 production after 4 hrs by ELISA; type: functional, organism-based
[12] = Modulation of gamma-secretase expressed in CHO cells co-expressing polyhistidine-tagged APP695NL I-his with FAD-linked Swedish and London mutation assessed as reduction in amyloid beta42 production after 2 hrs by ELISA; type: cell-based

Structure (SMILES): O=C(O)Cc1ccc(CN2CCC(C(F)(F)F)CC2)c(-c2ccc(C(F)(F)F)cc2)c1
EC50 [1]: > 10 µM

Structure (SMILES): O=C(O)C1(c2ccc(-c3ccc(Cl)c(Cl)c3)c(F)c2)CC1
EC50 [2]: 40 µM

Structure (SMILES): CC(C)CCN(Cc1ccc(CC(=O)O)cc1-c1ccc(F)cc1)[C@H]1CC[C@H](C(C)(C)C)CC1
EC50 [1]: 5.6 µM

Structure (SMILES): CC(C)(C)CC(c1ccc(CC(=O)O)cc1-c1ccc(C(F)(F)F)cc1)N1CCC(C(F)(F)F)CC1 (single isomer, unassigned; enantiomer 1)
IC50 [1]: 0.7 µM | inhibition (INH) (Mus musculus [3]; 30 mg/kg): 25%

Structure (SMILES): CC(C)(C)CC(c1ccc(CC(=O)O)cc1-c1ccc(C(F)(F)F)cc1)N1CCC(C(F)(F)F)CC1 (racemic)
inhibition (Mus musculus [11]): Dose-dependent effect

Structure (SMILES): CC(C)CCC(c1ccc(CC(=O)O)cc1-c1ccc(C(F)(F)F)cc1)N1CCC(C)CC1 (stereo not drawn)
EC50 [1]: 10 µM

Structure (SMILES): CC(C)CCN(Cc1ccc(CC(=O)O)cc1-c1ccc(C(F)(F)F)nc1)[C@H]1CC[C@H](C(C)(C)C)CC1
EC50 [1]: 5 µM

Structure (SMILES): C[C@@H](C(=O)O)c1ccc(-c2ccccc2)c(F)c1 [TARENFLURBIL]
EC50 [12]: 300 µM

More lines, in order of falling EC50 [1], values ahead:

EC50 [1]: 3.3 µM
Structure (SMILES): CC(C)CCC(c1ccc(CC(=O)O)cc1-c1ccc(C(F)(F)F)cc1)N1CCC(F)(F)C1 (stereo not drawn)

EC50 [1]: 1.5 µM | concentration at 4 h [5]: 0.6 µM | concentration at 4 h [7]: 15 µM
Structure (SMILES): CC(C)CCN(Cc1ccc(CC(=O)O)cc1-c1ccc(C(F)(F)F)cc1)c1ccc(C(F)(F)F)cc1
Activity (CHO [6]): inactive | inhibition (Mus musculus [4]): inactive | Activity (CHO [8]): Active

EC50 [1]: 1.1 µM
Structure (SMILES): CC(C)CCC(c1ccc(CC(=O)O)cc1-c1ccc(C(F)(F)F)cc1)N1CCC(C(C)(C)C)CC1 (stereo not drawn)

EC50 [1]: 0.67 µM | concentration at 4 h [5]: 7 µM
Structure (SMILES): CC(C)CCN(Cc1ccc(CC(=O)O)cc1-c1ccc(C(F)(F)F)cc1)[C@H]1CC[C@H](C(C)(C)C)CC1
inhibition in vivo at 50 mg/kg (Mus musculus [4]): 24% | Ratio (Nucleic Acid): 10

concentration at 4 h [9]: 23 µM | EC50 [1]: 0.42 µM | concentration at 4 h [10]: 10 µM
Structure (SMILES): O=C(O)Cc1ccc(C(C2CCCCC2)N2CCC(C(F)(F)F)CC2)c(-c2ccc(C(F)(F)F)cc2)c1 (stereo not drawn)
inhibition in vivo at 30 mg/kg (Mus musculus [3]; Mus musculus, CF1, Brain, po, 4 h): 15%

EC50 [1]: 0.12 µM | concentration at 4 h [5]: 0.7 µM
Structure (SMILES): CC(C)CCN(Cc1ccc(C(CC(C)C)C(=O)O)cc1-c1ccc(C(F)(F)F)cc1)[C@H]1CC[C@H](C(C)(C)C)CC1 (mixture of isomers)
inhibition (Mus musculus [4]): inactive
